Drawing on PubChem BioAssay AID1259407 (Chemical Carcinogenesis Research Information System (CCRIS), 2018), this text covers mutagenic call for three compounds.

For the data set, the system named is CCRIS mutagenicity, Ames/micronucleus/aberration tests. The experiment in a line: CCRIS mutagenicity studies.
The mark [1] stands for this setting: Test System: AMES SALMONELLA TYPHIMURIUM, Strain/Indicator: TA100, Metabolic Activation: NONE, Method: PREINCUBATION

Activity calls are given as the source filed them. The rule behind the calls is not given here.

For `CBr`, the mutagenic call (Test System: AMES SALMONELLA TYPHIMURIUM, Strain/Indicator: TA98, Metabolic Activation: HAMSTER, LIVER, S-9, AROCLOR 1254 (30%), Method: DESICCATOR) is “inactive; negative”; the mutagenic call (Test System: AMES SALMONELLA TYPHIMURIUM, Strain/Indicator: TA98, Metabolic Activation: NONE, Method: DESICCATOR) was “inactive; negative”; the mutagenic call (Test System: AMES SALMONELLA TYPHIMURIUM, Strain/Indicator: TA98, Metabolic Activation: NONE, Method: GAS EXPOSURE) is “inactive; negative”; the mutagenic call (Test System: AMES SALMONELLA TYPHIMURIUM, Strain/Indicator: TA98, Metabolic Activation: RAT, LIVER, S-9, AROCLOR 1254 (30%), Method: DESICCATOR) is “inactive; negative”; the mutagenic call (Test System: AMES SALMONELLA TYPHIMURIUM, Strain/Indicator: TA98, Metabolic Activation: RAT, LIVER, S-9, SODIUM PHENOBARBITAL AND 5,6-BENZOFLAVONE, Method: GAS EXPOSURE) is “inactive; negative”; the mutagenic call (Test System: AMES SALMONELLA TYPHIMURIUM, Strain/Indicator: TA100, Metabolic Activation: HAMSTER, LIVER, S-9, AROCLOR 1254 (30%), Method: DESICCATOR) was “active; positive”. Besides, the mutagenic call runs as follows: (Test System: AMES SALMONELLA TYPHIMURIUM, Strain/Indicator: TA100, Metabolic Activation: NONE, Method: DESICCATOR) “active; positive”; (Test System: AMES SALMONELLA TYPHIMURIUM, Strain/Indicator: TA100, Metabolic Activation: NONE, Method: GAS EXPOSURE) “active; positive”; under setting [1], “active; positive”; (Test System: AMES SALMONELLA TYPHIMURIUM, Strain/Indicator: TA100, Metabolic Activation: NONE, Method: STANDARD PLATE) “active; positive”; (Test System: AMES SALMONELLA TYPHIMURIUM, Strain/Indicator: TA100, Metabolic Activation: RAT, LIVER, S-9, AROCLOR 1254 (30%), Method: DESICCATOR) “active; positive”; (Test System: AMES SALMONELLA TYPHIMURIUM, Strain/Indicator: TA100, Metabolic Activation: RAT, LIVER, S-9, AROCLOR 1254, Method: PREINCUBATION) “active; positive”. Besides, the mutagenic call is, setting by setting: (Test System: AMES SALMONELLA TYPHIMURIUM, Strain/Indicator: TA100, Metabolic Activation: RAT, LIVER, S-9, AROCLOR 1254, Method: STANDARD PLATE) “active; positive”; (Test System: AMES SALMONELLA TYPHIMURIUM, Strain/Indicator: TA100, Metabolic Activation: RAT, LIVER, S-9, SODIUM PHENOBARBITAL AND 5,6-BENZOFLAVONE, Method: GAS EXPOSURE) “active; positive”; (Test System: AMES SALMONELLA TYPHIMURIUM, Strain/Indicator: TA1535, Metabolic Activation: NONE, Method: GAS EXPOSURE) “active; positive”; (Test System: AMES SALMONELLA TYPHIMURIUM, Strain/Indicator: TA1535, Metabolic Activation: RAT, LIVER, S-9, SODIUM PHENOBARBITAL AND 5,6-BENZOFLAVONE, Method: GAS EXPOSURE) “active; positive”; (Test System: AMES SALMONELLA TYPHIMURIUM, Strain/Indicator: TA1537, Metabolic Activation: NONE, Method: GAS EXPOSURE) “inactive; negative”; (Test System: AMES SALMONELLA TYPHIMURIUM, Strain/Indicator: TA1537, Metabolic Activation: RAT, LIVER, S-9, SODIUM PHENOBARBITAL AND 5,6-BENZOFLAVONE, Method: GAS EXPOSURE) “inactive; negative”. In addition, the mutagenic call runs as follows: (Test System: E. COLI, Strain/Indicator: WP2UVRA, Metabolic Activation: NONE, Method: GAS EXPOSURE) “active; positive”; (Test System: E. COLI, Strain/Indicator: WP2UVRA, Metabolic Activation: RAT, LIVER, S-9, SODIUM PHENOBARBITAL AND 5,6-BENZOFLAVONE, Method: GAS EXPOSURE) “active; positive”.
In the case of `Nc1ncnc2c1ncn2-c1cccc([N+](=O)[O-])c1`, the mutagenic call was “active; positive” (Test System: AMES SALMONELLA TYPHIMURIUM, Strain/Indicator: TA98(1,8-DNP), Metabolic Activation: NONE, Method: PREINCUBATION); “active; positive” (Test System: AMES SALMONELLA TYPHIMURIUM, Strain/Indicator: TA98(1,8-DNP), Metabolic Activation: RAT, LIVER, S-9, PCB, Method: PREINCUBATION); “inactive; negative” (Test System: AMES SALMONELLA TYPHIMURIUM, Strain/Indicator: TA98(NR), Metabolic Activation: NONE, Method: PREINCUBATION); “inactive; negative” (Test System: AMES SALMONELLA TYPHIMURIUM, Strain/Indicator: TA98(NR), Metabolic Activation: RAT, LIVER, S-9, PCB, Method: PREINCUBATION); “active; positive” (Test System: AMES SALMONELLA TYPHIMURIUM, Strain/Indicator: TA98, Metabolic Activation: NONE, Method: PREINCUBATION); “active; positive” (Test System: AMES SALMONELLA TYPHIMURIUM, Strain/Indicator: TA98, Metabolic Activation: RAT, LIVER, S-9, PCB, Method: PREINCUBATION). For the same compound, the mutagenic call (Test System: AMES SALMONELLA TYPHIMURIUM, Strain/Indicator: TA100(1,8-DNP), Metabolic Activation: NONE, Method: PREINCUBATION) was “active; positive”; the mutagenic call (Test System: AMES SALMONELLA TYPHIMURIUM, Strain/Indicator: TA100(1,8-DNP), Metabolic Activation: RAT, LIVER, S-9, PCB, Method: PREINCUBATION) is “active; positive”; the mutagenic call (Test System: AMES SALMONELLA TYPHIMURIUM, Strain/Indicator: TA100(NR), Metabolic Activation: NONE, Method: PREINCUBATION) is “inactive; negative”; the mutagenic call (Test System: AMES SALMONELLA TYPHIMURIUM, Strain/Indicator: TA100(NR), Metabolic Activation: RAT, LIVER, S-9, PCB, Method: PREINCUBATION) was “inactive; negative”; the mutagenic call under setting [1] is “active; positive”; the mutagenic call (Test System: AMES SALMONELLA TYPHIMURIUM, Strain/Indicator: TA100, Metabolic Activation: RAT, LIVER, S-9, PCB, Method: PREINCUBATION) was “active; positive”. Besides, the mutagenic call by setting is: (Test System: AMES SALMONELLA TYPHIMURIUM, Strain/Indicator: YG1020, Metabolic Activation: NONE, Method: PREINCUBATION) “active; positive”; (Test System: AMES SALMONELLA TYPHIMURIUM, Strain/Indicator: YG1020, Metabolic Activation: RAT, LIVER, S-9, PCB, Method: PREINCUBATION) “active; positive”; (Test System: AMES SALMONELLA TYPHIMURIUM, Strain/Indicator: YG1021, Metabolic Activation: NONE, Method: PREINCUBATION) “active; positive”; (Test System: AMES SALMONELLA TYPHIMURIUM, Strain/Indicator: YG1021, Metabolic Activation: RAT, LIVER, S-9, PCB, Method: PREINCUBATION) “active; positive”; (Test System: AMES SALMONELLA TYPHIMURIUM, Strain/Indicator: YG1024, Metabolic Activation: NONE, Method: PREINCUBATION) “active; positive”; (Test System: AMES SALMONELLA TYPHIMURIUM, Strain/Indicator: YG1024, Metabolic Activation: RAT, LIVER, S-9, PCB, Method: PREINCUBATION) “active; positive”. Besides, the mutagenic call runs as follows: (Test System: AMES SALMONELLA TYPHIMURIUM, Strain/Indicator: YG1025, Metabolic Activation: NONE, Method: PREINCUBATION) “active; positive”; (Test System: AMES SALMONELLA TYPHIMURIUM, Strain/Indicator: YG1025, Metabolic Activation: RAT, LIVER, S-9, PCB, Method: PREINCUBATION) “active; positive”; (Test System: AMES SALMONELLA TYPHIMURIUM, Strain/Indicator: YG1026, Metabolic Activation: NONE, Method: PREINCUBATION) “active; positive”; (Test System: AMES SALMONELLA TYPHIMURIUM, Strain/Indicator: YG1026, Metabolic Activation: RAT, LIVER, S-9, PCB, Method: PREINCUBATION) “active; positive”; (Test System: AMES SALMONELLA TYPHIMURIUM, Strain/Indicator: YG1029, Metabolic Activation: NONE, Method: PREINCUBATION) “active; positive”; (Test System: AMES SALMONELLA TYPHIMURIUM, Strain/Indicator: YG1029, Metabolic Activation: RAT, LIVER, S-9, PCB, Method: PREINCUBATION) “active; positive”.
`C=CC1=C(C)/C(=C/c2[nH]c(Cc3[nH]c(/C=C4\NC(=O)C(C)=C4C=C)c(C)c3CCC(=O)O)c(CCC(=O)O)c2C)NC1=O`: the mutagenic call runs as follows: (Test System: Ames Salmonella typhimurium, Strain/Indicator: TA98, Metabolic Activation: Liver, S-9, Method: Preincubation) “inactive; negative”; (Test System: Ames Salmonella typhimurium, Strain/Indicator: TA98, Metabolic Activation: None, Method: Preincubation) “inactive; negative”; (Test System: Ames Salmonella typhimurium, Strain/Indicator: TA100, Metabolic Activation: Liver, S-9, Method: Preincubation) “inactive; negative”; (Test System: Ames Salmonella typhimurium, Strain/Indicator: TA100, Metabolic Activation: None, Method: Preincubation) “inactive; negative”; (Test System: Ames Salmonella typhimurium, Strain/Indicator: TA102, Metabolic Activation: Liver, S-9, Method: Preincubation) “inactive; negative”; (Test System: Ames Salmonella typhimurium, Strain/Indicator: TA102, Metabolic Activation: None, Method: Preincubation) “inactive; negative”.
